{"source": "patent US20110009351A1", "about": "“SCREENING ASSAY TO IDENTIFY CORRECTORS OF PROTEIN TRAFFICKING DEFECTS” (Traffick Therepeutics Inc., priority 2007, published 2011)", "key": {"ΔF508-CFTR [1]": {"molecular_target": "T1, ΔF508-CFTR (Homo sapiens, UniProt P13569, DEL508-508)", "T1 sequence (P13569 with tags, fused parts or gaps DEL508-508)": "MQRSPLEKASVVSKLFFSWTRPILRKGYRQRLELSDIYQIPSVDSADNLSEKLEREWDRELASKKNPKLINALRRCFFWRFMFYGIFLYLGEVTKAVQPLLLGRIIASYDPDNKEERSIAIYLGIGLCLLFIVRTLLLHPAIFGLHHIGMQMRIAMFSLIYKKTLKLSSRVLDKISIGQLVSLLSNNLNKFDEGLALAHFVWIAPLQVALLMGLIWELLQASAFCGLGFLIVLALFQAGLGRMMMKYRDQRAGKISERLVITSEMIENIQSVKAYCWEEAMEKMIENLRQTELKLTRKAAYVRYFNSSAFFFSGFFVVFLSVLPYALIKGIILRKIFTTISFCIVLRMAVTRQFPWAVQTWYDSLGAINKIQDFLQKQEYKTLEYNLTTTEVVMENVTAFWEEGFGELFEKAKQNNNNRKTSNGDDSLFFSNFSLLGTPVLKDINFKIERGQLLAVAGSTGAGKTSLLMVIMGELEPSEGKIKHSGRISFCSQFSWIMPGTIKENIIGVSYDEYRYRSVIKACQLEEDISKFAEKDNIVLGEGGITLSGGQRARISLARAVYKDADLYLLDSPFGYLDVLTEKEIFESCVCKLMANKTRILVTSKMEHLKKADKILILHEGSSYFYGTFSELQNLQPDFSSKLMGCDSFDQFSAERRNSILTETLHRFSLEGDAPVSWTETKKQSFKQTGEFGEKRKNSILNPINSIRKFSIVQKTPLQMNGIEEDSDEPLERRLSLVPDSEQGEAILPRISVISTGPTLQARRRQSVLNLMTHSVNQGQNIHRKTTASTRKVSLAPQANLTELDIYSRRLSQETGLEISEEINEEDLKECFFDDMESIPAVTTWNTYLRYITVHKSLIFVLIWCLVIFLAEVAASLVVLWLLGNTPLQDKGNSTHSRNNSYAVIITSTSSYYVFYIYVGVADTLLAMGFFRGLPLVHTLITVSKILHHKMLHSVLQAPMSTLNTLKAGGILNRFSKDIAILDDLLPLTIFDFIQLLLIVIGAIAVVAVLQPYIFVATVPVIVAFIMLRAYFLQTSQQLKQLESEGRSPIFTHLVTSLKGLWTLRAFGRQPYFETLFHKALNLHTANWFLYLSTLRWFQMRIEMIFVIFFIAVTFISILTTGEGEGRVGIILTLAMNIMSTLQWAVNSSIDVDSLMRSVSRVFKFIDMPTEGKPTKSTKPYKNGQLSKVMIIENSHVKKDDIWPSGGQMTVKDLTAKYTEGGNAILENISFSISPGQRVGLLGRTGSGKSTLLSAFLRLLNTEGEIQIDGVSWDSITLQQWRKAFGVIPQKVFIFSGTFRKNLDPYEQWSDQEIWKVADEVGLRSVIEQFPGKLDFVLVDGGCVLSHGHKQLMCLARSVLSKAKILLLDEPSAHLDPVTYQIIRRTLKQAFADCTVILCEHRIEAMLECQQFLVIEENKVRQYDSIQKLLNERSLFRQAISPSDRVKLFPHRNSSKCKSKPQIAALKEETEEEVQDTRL", "assay_type": "cell-based", "parameters": "which was then ligated into full length pNUT-CFTR linearized using Hpa1 and Pml1; expressed in transfected cells", "in_short": "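BHK cells stably expressing 3HA-tagged ΔF508-CFTR (tags in fourth extracellular loop) treated with compound at 20 μM final for 24 h at 37° C. Surface ΔF508-CFTR measured on fixed, non-permeabilised cells by anti-HA/FITC immunofluorescence (488/510 nm), relative to untreated-well background; hits retested in duplicate, intrinsically fluorescent compounds excluded.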"}, "ΔF508-CFTR [2]": {"molecular_target": "T2, ΔF508-CFTR (Mus musculus, UniProt P26361, DEL508-508)", "T2 construct": "from tissue; host or cells: ileal mucosa of homozygous ΔF508 mice (A11 ex vivo, A12 after gavage); salivary secretion in the living mouse (A13)", "T2 sequence (P26361 with tags, fused parts or gaps DEL508-508)": "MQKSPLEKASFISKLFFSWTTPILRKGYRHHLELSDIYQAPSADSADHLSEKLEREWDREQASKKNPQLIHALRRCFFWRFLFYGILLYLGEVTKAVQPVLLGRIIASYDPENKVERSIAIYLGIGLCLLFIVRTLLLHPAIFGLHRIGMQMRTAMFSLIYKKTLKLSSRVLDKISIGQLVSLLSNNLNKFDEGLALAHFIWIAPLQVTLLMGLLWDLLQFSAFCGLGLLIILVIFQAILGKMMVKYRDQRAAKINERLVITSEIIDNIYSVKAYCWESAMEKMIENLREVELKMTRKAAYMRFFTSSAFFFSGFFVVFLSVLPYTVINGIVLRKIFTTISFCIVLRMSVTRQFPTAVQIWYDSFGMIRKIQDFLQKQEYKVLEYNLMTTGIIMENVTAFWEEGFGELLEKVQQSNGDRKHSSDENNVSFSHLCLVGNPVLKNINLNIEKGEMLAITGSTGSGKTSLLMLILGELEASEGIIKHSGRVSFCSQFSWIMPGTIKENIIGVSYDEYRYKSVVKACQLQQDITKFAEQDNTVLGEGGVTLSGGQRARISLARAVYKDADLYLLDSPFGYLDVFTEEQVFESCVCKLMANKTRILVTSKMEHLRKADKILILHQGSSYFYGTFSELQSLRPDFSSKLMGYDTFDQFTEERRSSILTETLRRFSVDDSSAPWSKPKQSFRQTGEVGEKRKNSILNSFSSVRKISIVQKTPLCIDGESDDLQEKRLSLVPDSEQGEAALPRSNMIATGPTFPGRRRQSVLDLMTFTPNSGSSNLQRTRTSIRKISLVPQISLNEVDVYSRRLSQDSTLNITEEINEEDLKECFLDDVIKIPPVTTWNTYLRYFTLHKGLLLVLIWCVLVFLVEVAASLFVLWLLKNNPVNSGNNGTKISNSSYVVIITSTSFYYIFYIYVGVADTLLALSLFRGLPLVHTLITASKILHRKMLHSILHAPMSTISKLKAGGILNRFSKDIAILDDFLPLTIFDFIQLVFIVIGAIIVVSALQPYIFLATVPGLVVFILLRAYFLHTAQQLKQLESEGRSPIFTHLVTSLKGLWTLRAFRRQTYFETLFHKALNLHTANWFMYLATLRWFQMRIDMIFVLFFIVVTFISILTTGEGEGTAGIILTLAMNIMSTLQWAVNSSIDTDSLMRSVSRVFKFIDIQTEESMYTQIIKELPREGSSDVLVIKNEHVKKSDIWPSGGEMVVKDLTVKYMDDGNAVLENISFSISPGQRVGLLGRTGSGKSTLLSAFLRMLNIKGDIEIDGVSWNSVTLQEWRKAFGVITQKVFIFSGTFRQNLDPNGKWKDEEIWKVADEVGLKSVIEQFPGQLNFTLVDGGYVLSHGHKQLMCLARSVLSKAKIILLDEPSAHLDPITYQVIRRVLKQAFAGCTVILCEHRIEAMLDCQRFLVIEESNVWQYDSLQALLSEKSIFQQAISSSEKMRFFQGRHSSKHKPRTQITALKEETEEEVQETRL", "experiment": "in vivo treatment of ΔF508-CFTR mice by gavage, Isc of freshly isolated ileum", "details": "50 mg/kg by gavage, once per day, 2 days", "protocol": "Glafenine was tested ex vivo and in vivo using ileum from homozygous Δ508-CFTR mice (CFTR^tm1 Eur; van Doorninck et al., 1995) and wild-type littermates controls. Mice were 14-17 weeks old, weighed 24-30 g, and were genotyped by standard PCR methods using tail DNA. The mice were kept in a pathogen-free environment in the animal facility at McGill University and fed a high protein diet (SRM-A, Hope Farms, Woerden, NL) modified to contain pork instead of beef. All procedures followed Canadian Institutes of Health Research (CIHR) guidlines and were approved by the faculty Animal Care Committee. For ex vivo experiments, ileal mucosa was stripped of muscle and incubated in William's E-Glutamax medium supplemented with insulin (10 μg/ml), 100 U/ml penicillin, and 100 μg/ml streptomycin and dexamethasone (1.6 ng/ml) containing 0.1% DMSO (control) or DMSO containing glafenine for 5 h. The tissue was then rinsed repeatedly and mounted in Ussing chambers to measure […]. For in vivo experiments, mice were feed once per day by gavage with saline containing glafenine (50 mg/kg) or vehicle alone (0.1% DMSO). After 2 days of glafenine treatment the mice were euthanized under CO2, the intestine was dissected and the short circuit current was measured as described above."}, "ΔF508-CFTR [3]": {"molecular_target": "T1, ΔF508-CFTR", "experiment": "iodide efflux assay in BHK cells expressing ΔF508-CFTR", "assay_type": "cell-based", "parameters": "which was then ligated into full length pNUT-CFTR linearized using Hpa1 and Pml1; expressed in transfected cells", "details": "24 h", "protocol": "Experiments were performed by hand or with a robotic liquid handling system (BioRobot 8000, Qiagen, USA) using Qiagen 4.1 software. Cells were cultured in 24-well plates until they reached confluence in order to perform parallel experiments and comparison analysis. After treatment (or not) with a test compound, medium in each well was replaced with 1 ml of iodide loading buffer (in mM: 136 NaI, 3 KNO3, 2 Ca(NO3)2, 11 glucose and 20 Hepes pH 7.4) for 1 hour at 37° C. to permit the I′ to reach equilibrium. At the beginning of each experiment, the loading buffer was removed by aspiration and cells were washed eight times with efflux buffer (same as loading buffer except that NaI was replaced with 136 mM NaNO3) to remove extracellular I^− in each well. The loss of intracellular I^− was determined by removing the medium and replacing it with fresh efflux buffer every 1 min for up to 11 min. The first four aliquots were recovered at 1-minute intervals in an empty 24-well plate and used to establish a stable baseline in efflux buffer alone. A stimulation buffer (efflux buffer containing 50 μM genistein+10 μM forskolin) was then added and sampling continued with replacement by stimulation buffer. The iodide concentration of each aliquot was determined using an iodide-sensitive electrode (Orion Research Inc., Boston, Mass., USA or Ecomet) and converted to iodide content (i.e. the amount of iodide released during the 1 min interval). Curves were constructed by plotting concentration versus time. Data are presented as means±SEM.\nIodide effluxes were performed using a robotic liquid handling system (BioRobot 8000, Qiagen, Valencia, Calif.) and Qiagen 4.1 software. Cells were cultured to confluence in 24-well plates. After treatment (or not) with a test compound, the medium in each well was replaced with 1 ml of iodide loading buffer: 136 mM NaI, 3 mM KNO3, 2 mM Ca(NO3)2, 11 mM glucose, 20 mM Hepes, pH 7.4 with NaOH) and incubated for 1 h at 37° C. At the beginning of each experiment, the loading buffer was removed by aspiration and cells were washed eight times with 300 μl efflux buffer (same as loading buffer except that NaI was replaced with 136 mM NaNO3) to remove extracellular I^−. Efflux was measured by replacing the medium with 300 μl fresh efflux buffer at 1 min intervals for up to 11 min. The first four aliquots were used to establish a stable baseline, then buffer containing 10 μM forskolin+50 μM genistein was used to stimulate CFTR activity. Iodide concentration was measured in each aliquot (300 μl) using an iodide-sensitive electrode (Orion Research Inc., Boston, Mass.). Relative iodide efflux rate was calculated using the difference between maximum (peak) iodide concentration during stimulation and minimum iodide concentration before stimulation (in μM/min). […]"}}, "note": "Counter-ions that a name gives are not always drawn.", "data": [{"smiles": "O=C(OCC(O)CO)c1ccccc1Nc1ccnc2cc(Cl)ccc12", "note": "(stereo not drawn) [Glafenine hydrochloride, 2-[(7-chloro-4-quinolinyl)amino]benzoic acid 2,3-dihydroxypropyl ester]", "values": [{"measurement": "ΔF508-CFTR surface expression increase, normalized to BHK cells expressing wild-type CFTR", "setting": "ΔF508-CFTR [1]; 10 μM, 24 h, compared with vehicle alone", "value": 40, "unit": "%"}, {"measurement": "hit in screen (class letter)", "setting": "ΔF508-CFTR [1]; Prestwick library, initial corrector assay, BHK cells", "value": "W (Medium and weak hits were defined as compounds giving a cell fluorescence signal that was between 2 and 3 or 1 and 2 standard deviations, respectively, above untreated control wells)"}, {"measurement": "hit in screen (score)", "setting": "ΔF508-CFTR [1]; Prestwick library, initial corrector assay, standard deviations above untreated controls", "value": 1.3}, {"measurement": "forskolin+genistein-stimulated current compared to mice fed with saline alone", "setting": "ΔF508-CFTR [2]", "value": "~7", "unit": "fold"}, {"measurement": "increase of cAMP-stimulated iodide efflux response", "setting": "ΔF508-CFTR [3]; 10 μM, 10 μM forskolin+50 μM genistein, versus vehicle", "value": 3.3, "unit": "fold"}, {"measurement": "concentration required for significant restoration of ΔF508-CFTR function", "setting": "ΔF508-CFTR [3]; iodide efflux, BHK", "value": "1 to 10", "unit": "µM"}]}]}
